Data from US20230146455A1, “TREATMENT OF INFLAMMATORY DISEASES WITH PEPTIDES AND PHARMACEUTICAL COMPOSITIONS” (Yuyu Pharma, Inc., priority 2020, published 2023).
“And” between values parts separate entries of the source, which are not always exact repeats. Equal values may be shown once. Where a SMILES comes first, the peptide text is derived from it. [ ]: non-standard residue; d: D form. Hyp = O=C(O)[C@@H]1C[C@@H](O)CN1

Test system: CCL20/MIP-3 alpha
Assay: Example 9 Luminex, LPS hPBMCs: CCL20/MIP-3 alpha
Assay type: cell-based, human
Description: Treatment Human PBMCs were pretreated with YY-101, YDE-011 and YDE-043 or reference compound; Xiidra® at various concentration (ranging from 1 nM to 100 uM) for 2 h before stimulation. An equal volume of 0.5% DMSO was used as a vehicle control. Then, the cells were treated with LPS at 5 ug/ml. The supernatants from treated cells were harvested at 24 h and placed in a 96 well for Luminex cytokine & chemokine profiling using a Luminex 200 multiplex assay (Luminex; R&D system, USA).
The main study arm with triplicate wells per group in a 24-well plate: • 1. Blank • 2. PBMC: 0.5% DMSO • 3. PBMC+LPS (5 ug/ml) • 4. PBMC+YY-101 100 uM • 5. PBMC+YY-101 10 uM • 6. PBMC+YY-101 1 uM • 7. PBMC+YY-101 0.1 uM • 8. PBMC+YY-101 0.01 uM • 9. PBMC+LPS (5 ug/ml)+Xiidra®100 uM • 10. PBMC+LPS (5 ug/ml)+Xiidra® 10 uM • 11. PBMC+LPS (5 ug/ml)+Xiidra® 1 uM • 12. PBMC+LPS (5 ug/ml)+Xiidra®0.1 uM • 13. PBMC+LPS (5 ug/ml)+Xiidra®0.01 uM • 14. PBMC+LPS (5 ug/ml)+Xiidra®0.001 uM • 15. PBMC+LPS (5 ug/ml)+YY-101 100 uM • 16. PBMC+LPS (5 ug/ml)+YY-101 10 uM • 17. PBMC+LPS (5 ug/ml)+YY-101 1 uM • 18. PBMC+LPS (5 ug/ml)+YY-101 0.1 uM • 19. PBMC+LPS (5 ug/ml)+YY-101 0.01 uM • 20. PBMC+LPS (5 ug/ml)+YY-101 0.001 uM • 21. PBMC+LPS (5 ug/ml)+YDE-011 100 uM • 22. PBMC+LPS (5 ug/ml)+YDE-011 10 uM • 23. PBMC+LPS (5 ug/ml)+YDE-011 1 uM • 24. PBMC+LPS (5 ug/ml)+YDE-011 0.1 uM • 25. PBMC+LPS (5 ug/ml)+YDE-011 0.01 uM • 26. PBMC+LPS (5 ug/ml)+YDE-011 0.001 uM • 27. PBMC+LPS (5 ug/ml)+YDE-043 100 uM • 28. PBMC+LPS (5 ug/ml)+YDE-043 10 uM • 29. PBMC+LPS (5 ug/ml)+YDE-043 1 uM • 30. PBMC+LPS (5 ug/ml)+YDE-043 0.1 uM • 31. PBMC+LPS (5 ug/ml)+YDE-043 0.01 uM • 32. PBMC+LPS (5 ug/ml)+YDE-043 0.001 uM
Multiplex assay was used to measure 30 cytokines and chemokines. The 1:2, 1:10 and 1:200 diluted cell supernatant and serial dilution of the standard were dispensed into a 96 well plate at 50 ul/well. Then, the pre-mixed cocktail of antibody-coated magnetic beads was dispensed at 50 ul/well and incubated at room temperature for 2 h in a horizontal orbital microplate shaker at 800±500 rpm. The beads were washed using a magnetic device to prevent loss. The biotin-antibody was dispensed in 50 ul of each well and incubated at room temperature for 1 h in a shaker at 800±500 rpm. After washing, streptavidin-PE was added at 50 ul/well and incubated at room temperature for 30 min in a shaker under the same conditions. Finally, after washing, wash buffer (100 ul/well) was added to the plate and incubated in a shaker for 2 min. The Luminex™ 200 setting were set according to the manufacturer's protocol. The data was calculated with a standard five-parameter logistic nonlinear regression analysis of the data (xPonent software 4.2, USA). The levels of cytokine/chemokine are normalized to the live cell counts (1×10^5 cells/mL) and presented as concentrations per mL (pg/mL or ng/mL).

[1] = PBMC + LPS(5 ug/ml) + test article 0.001 uM, Mean
[2] = PBMC + LPS(5 ug/ml) + test article 0.001 uM, individual replicate
[3] = PBMC + LPS(5 ug/ml) + test article 0.01 uM, Mean
[4] = PBMC + LPS(5 ug/ml) + test article 0.01 uM, individual replicate
[5] = PBMC + LPS(5 ug/ml) + test article 0.1 uM, Mean
[6] = PBMC + LPS(5 ug/ml) + test article 0.1 uM, individual replicate
[7] = PBMC + LPS(5 ug/ml) + test article 1 uM, Mean
[8] = PBMC + LPS(5 ug/ml) + test article 1 uM, individual replicate
[9] = PBMC + LPS(5 ug/ml) + test article 10 uM, Mean
[10] = PBMC + LPS(5 ug/ml) + test article 10 uM, individual replicate
[11] = PBMC + LPS(5 ug/ml) + test article 100 uM, Mean
[12] = PBMC + LPS(5 ug/ml) + test article 100 uM, individual replicate
[13] = PBMC + test article 0.01 uM, no LPS, Mean
[14] = PBMC + test article 0.01 uM, no LPS, individual replicate
[15] = PBMC + test article 0.1 uM, no LPS, Mean
[16] = PBMC + test article 0.1 uM, no LPS, individual replicate
[17] = PBMC + test article 1 uM, no LPS, Mean
[18] = PBMC + test article 1 uM, no LPS, individual replicate
[19] = PBMC + test article 10 uM, no LPS, Mean

For `CC(C)C[C@H](NC(=O)CNC(=O)[C@H](CC(=O)O)NC(=O)[C@H](CCC(N)=O)NC(=O)CNC(=O)[C@@H]1C[C@@H](O)CN1)C(=O)N[C@@H](C)C(=O)NCC(=O)N1CCC[C@H]1C(=O)N[C@@H](CCCCN)C(=O)O` [YY-101] (H-[Hyp]GQDGLAGPK-OH; N-terminus and C-terminus assumed), the “Concentration, CCL20/MIP-3 alpha” value [1] was 315.3 pg/mL, the “MFI, CCL20/MIP-3 alpha” value [1] was 346.7 and the “conc/live cell, CCL20/MIP-3 alpha” value [1] was 49.1 pg/10^5. The “Concentration, CCL20/MIP-3 alpha” value [2] was 301.0 pg/mL and 289.9 pg/mL and 355.1 pg/mL, the “MFI, CCL20/MIP-3 alpha” value [2] was 329.0 and 315.5 and 395.5 and the “conc/live cell, CCL20/MIP-3 alpha” value [2] was 52.8 pg/10^5 and 40.8 pg/10^5 and 53.8 pg/10^5. For the same compound, the “Concentration, CCL20/MIP-3 alpha” value [3] was 377.7 pg/mL, the “MFI, CCL20/MIP-3 alpha” value [3] was 423.7 and the “conc/live cell, CCL20/MIP-3 alpha” value [3] was 61.2 pg/10^5. For the same compound, the “Concentration, CCL20/MIP-3 alpha” value [4] was 383.7 pg/mL and 338.9 pg/mL and 410.6 pg/mL, the “MFI, CCL20/MIP-3 alpha” value [4] was 431.0 and 375.5 and 464.5 and the “conc/live cell, CCL20/MIP-3 alpha” value [4] was 60.0 pg/10^5 and 56.5 pg/10^5 and 67.3 pg/10^5. For the same compound, the “Concentration, CCL20/MIP-3 alpha” value [5] was 364.1 pg/mL, the “MFI, CCL20/MIP-3 alpha” value [5] was 406.7 and the “conc/live cell, CCL20/MIP-3 alpha” value [5] was 62.5 pg/10^5. For the same compound, the “Concentration, CCL20/MIP-3 alpha” value [6] was 378.5 pg/mL and 364.4 pg/mL and 349.4 pg/mL, the “MFI, CCL20/MIP-3 alpha” value [6] was 424.5 and 407.0 and 388.5 and the “conc/live cell, CCL20/MIP-3 alpha” value [6] was 61.0 pg/10^5 and 70.1 pg/10^5 and 56.4 pg/10^5. The “Concentration, CCL20/MIP-3 alpha” value [7] was 338.5 pg/mL, the “MFI, CCL20/MIP-3 alpha” value [7] was 375.0 and the “conc/live cell, CCL20/MIP-3 alpha” value [7] was 52.1 pg/10^5. The “Concentration, CCL20/MIP-3 alpha” value [8] was 323.0 pg/mL and 330.0 pg/mL and 362.4 pg/mL, the “MFI, CCL20/MIP-3 alpha” value [8] was 356.0 and 364.5 and 404.5 and the “conc/live cell, CCL20/MIP-3 alpha” value [8] was 51.3 pg/10^5 and 46.5 pg/10^5 and 58.4 pg/10^5. The “Concentration, CCL20/MIP-3 alpha” value [9] was 368.2 pg/mL, the “MFI, CCL20/MIP-3 alpha” value [9] was 411.8 and the “conc/live cell, CCL20/MIP-3 alpha” value [9] was 55.3 pg/10^5. For the same compound, the “Concentration, CCL20/MIP-3 alpha” value [10] was 324.3 pg/mL and 377.7 pg/mL and 402.6 pg/mL, the “MFI, CCL20/MIP-3 alpha” value [10] was 357.5 and 423.5 and 454.5 and the “conc/live cell, CCL20/MIP-3 alpha” value [10] was 54.0 pg/10^5 and 59.0 pg/10^5 and 53.0 pg/10^5. The “Concentration, CCL20/MIP-3 alpha” value [11] was 578.6 pg/mL, the “MFI, CCL20/MIP-3 alpha” value [11] was 677.7 and the “conc/live cell, CCL20/MIP-3 alpha” value [11] was 100.0 pg/10^5. The “Concentration, CCL20/MIP-3 alpha” value [12] was 590.1 pg/mL and 591.7 pg/mL and 553.9 pg/mL, the “MFI, CCL20/MIP-3 alpha” value [12] was 692.5 and 694.5 and 646.0 and the “conc/live cell, CCL20/MIP-3 alpha” value [12] was 93.7 pg/10^5 and 95.4 pg/10^5 and 110.8 pg/10^5. The “Concentration, CCL20/MIP-3 alpha” value [13] was 12.1 pg/mL, the “MFI, CCL20/MIP-3 alpha” value [13] was 11.0 and the “conc/live cell, CCL20/MIP-3 alpha” value [13] was 2.5 pg/10^5. The “Concentration, CCL20/MIP-3 alpha” value [14] was 7.3 pg/mL and 16.8 pg/mL, the “MFI, CCL20/MIP-3 alpha” value [14] was 7.5 and 14.5 and the “conc/live cell, CCL20/MIP-3 alpha” value [14] was 1.4 pg/10^5 and 3.5 pg/10^5. For the same compound, the “Concentration, CCL20/MIP-3 alpha” value [15] was 9.5 pg/mL, the “MFI, CCL20/MIP-3 alpha” value [15] was 9.0 and the “conc/live cell, CCL20/MIP-3 alpha” value [15] was 1.8 pg/10^5. The “Concentration, CCL20/MIP-3 alpha” value [16] was 7.3 pg/mL and 11.6 pg/mL, the “MFI, CCL20/MIP-3 alpha” value [16] was 7.5 and 10.5 and the “conc/live cell, CCL20/MIP-3 alpha” value [16] was 1.7 pg/10^5 and 2.0 pg/10^5. For the same compound, the “Concentration, CCL20/MIP-3 alpha” value [17] was 8.8 pg/mL, the “MFI, CCL20/MIP-3 alpha” value [17] was 8.5 and the “conc/live cell, CCL20/MIP-3 alpha” value [17] was 1.6 pg/10^5. For the same compound, the “Concentration, CCL20/MIP-3 alpha” value [18] was 7.3 pg/mL and 10.2 pg/mL, the “MFI, CCL20/MIP-3 alpha” value [18] was 7.5 and 9.5 and the “conc/live cell, CCL20/MIP-3 alpha” value [18] was 1.3 pg/10^5 and 1.9 pg/10^5. The “Concentration, CCL20/MIP-3 alpha” value [19] was 41.3 pg/mL and the “MFI, CCL20/MIP-3 alpha” value [19] was 36.5.
